Our source for the AC1.4 values is patent publication US12441691B2 (Cytokinetics, Inc., priority 2020, dated 2025).

The subject of this assay is rabbit skeletal myofibrils (fast skeletal myofibrils). Kind of assay: Activation of fast skeletal myofibrils (PUMA assay, AC1.4). It counts as biochemical. The note with it: calcium at pCa25, AC1.4 = concentration at which the compound increased the enzymatic activity. Put shortly: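 Detergent-washed rabbit psoas myofibrils (~90% fast fibers), calcium set to give 25% of maximal rate (pCa25). ATPase followed by pyruvate kinase/lactate dehydrogenase-coupled NADH oxidation, absorbance at 340 nm. PM12 buffer: 12 mM PIPES, 2 mM MgCl2, 1 mM DTT, pH 6.8.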
As to `CC[C@H](C)[C@H]1C(=O)Nc2ccccc2CN1C(=O)Nc1nnc(C)s1` [Compound 283, (S)-3-((S)-sec-butyl)-N-(5-methyl-1,3,4-thiadiazol-2-yl)-2-oxo-1,2,3,5-tetrahydro-4H-benzo[e][1,4]diazepine-4-carboxamide], the AC1.4 was 0.09 µM. In the case of `CC[C@H](C)[C@H]1C(=O)Nc2ccccc2CN1C(=O)Nc1cccnc1CO` [Compound 284, (S)-3-((S)-sec-butyl)-N-(2-(hydroxymethyl)pyridin-3-yl)-2-oxo-1,2,3,5-tetrahydro-4H-benzo[e][1,4]diazepine-4-carboxamide] it was 0.11 µM. In the case of `CC[C@H](C)[C@H]1C(=O)Nc2ccccc2CN1C(=O)N1CC[C@@H](CO)C1` [Compound 285, (S)-3-((S)-sec-butyl)-4-((R)-3-(hydroxymethyl)pyrrolidine-1-carbonyl)-1,3,4,5-tetrahydro-2H-benzo[e][1,4]diazepin-2-one] it was 0.54 µM; in that of `CC[C@H](C)[C@H]1C(=O)Nc2ccccc2CN1C(=O)NCc1ccccc1C(N)=O` [Compound 286], 0.30 µM. In the case of `CC[C@H](C)[C@H]1C(=O)Nc2ccccc2CN1C(=O)N[C@H](C(N)=O)c1ccccc1` [Compound 287, (S)-N-((S)-2-amino-2-oxo-1-phenylethyl)-3-((S)-sec-butyl)-2-oxo-1,2,3,5-tetrahydro-4H-benzo[e][1,4]diazepine-4-carboxamide] it was 0.35 µM; in that of `CC[C@H](C)[C@H]1C(=O)Nc2ccccc2CN1C(=O)c1ccc(C(N)=O)cc1` [Compound 288, 4-((S)-3-((S)-sec-butyl)-2-oxo-2,3,4,5-tetrahydro-1H-benzo[e][1,4]diazepine-4-carbonyl)benzamide], 0.16 µM. For the compound `CC[C@H](C)[C@H]1C(=O)Nc2ccccc2CN1C(=O)N1CC[C@H](C(=O)O)C1` [Compound 289, (S)-1-((S)-3-((S)-sec-butyl)-2-oxo-2,3,4,5-tetrahydro-1H-benzo[e][1,4]diazepine-4-carbonyl)pyrrolidine-3-carboxylic acid], the AC1.4 is 3.59 µM.

For the compound `CC[C@H](C)[C@H]1C(=O)Nc2ccccc2CN1C(=O)NC1CCN(C)CC1` [Compound 290, (S)-3-((S)-sec-butyl)-N-(1-methylpiperidin-4-yl)-2-oxo-1,2,3,5-tetrahydro-4H-benzo[e][1,4]diazepine-4-carboxamide], the AC1.4 was found to be 0.15 µM. Consider `CC[C@H](C)[C@H]1C(=O)Nc2ccccc2CN1C(=O)Nc1ccn(C)c(=O)c1` [Compound 291, (S)-3-((S)-sec-butyl)-N-(1-methyl-2-oxo-1,2-dihydropyridin-4-yl)-2-oxo-1,2,3,5-tetrahydro-4H-benzo[e][1,4]diazepine-4-carboxamide], for which the AC1.4 worked out at 0.05 µM.

As to `CC[C@H](C)[C@H]1C(=O)Nc2ccccc2CN1C(=O)Nc1cncc(OC)c1` [Compound 292, (S)-3-((S)-sec-butyl)-N-(5-methoxypyridin-3-yl)-2-oxo-1,2,3,5-tetrahydro-4H-benzo[e][1,4]diazepine-4-carboxamide], the AC1.4 was found to be 0.05 µM. Consider `CC[C@H](C)[C@H]1C(=O)Nc2ccccc2CN1C(=O)NC1CCOCC1` [Compound 293, (S)-3-((S)-sec-butyl)-2-oxo-N-(tetrahydro-2H-pyran-4-yl)-1,2,3,5-tetrahydro-4H-benzo[e][1,4]diazepine-4-carboxamide], for which the AC1.4 came to 0.55 µM. `CC[C@H](C)[C@H]1C(=O)Nc2ccccc2CN1C(=O)N1CC[C@H](C(=O)NC)C1` [Compound 294, (S)-1-((S)-3-((S)-sec-butyl)-2-oxo-2,3,4,5-tetrahydro-1H-benzo[e][1,4]diazepine-4-carbonyl)-N-methylpyrrolidine-3-carboxamide]: the AC1.4 was 2.32 µM.

`CC[C@H](C)[C@H]1C(=O)Nc2ccccc2CN1C(=O)N1CC[C@H](C(=O)N(C)C)C1` [Compound 295]: the AC1.4 was determined as 3.41 µM.

On to `CC[C@H](C)[C@H]1C(=O)Nc2ccccc2CN1C(=O)N1CC[C@H](C(N)=O)C1` [Compound 296, (S)-1-((S)-3-((S)-sec-butyl)-2-oxo-2,3,4,5-tetrahydro-1H-benzo[e][1,4]diazepine-4-carbonyl)pyrrolidine-3-carboxamide], for which the AC1.4 worked out at 1.75 µM. In the case of `CC[C@H](C)[C@H]1C(=O)Nc2ccccc2CN1C(=O)N(C)C(C)C` [Compound 297, (S)-3-((S)-sec-butyl)-N-isopropyl-N-methyl-2-oxo-1,2,3,5-tetrahydro-4H-benzo[e][1,4]diazepine-4-carboxamide] it was 1.13 µM; in that of `CC[C@H](C)[C@H]1C(=O)Nc2ccccc2CN1C(=O)Nc1cncc(C(N)=O)c1` [Compound 298, (S)-3-((S)-sec-butyl)-N-(5-carbamoylpyridin-3-yl)-2-oxo-1,2,3,5-tetrahydro-4H-benzo[e][1,4]diazepine-4-carboxamide], 0.07 µM; in that of `CC[C@H](C)[C@H]1C(=O)Nc2ccccc2CN1C(=O)Nc1ccn(CCOC)n1` [Compound 299, (S)-3-((S)-sec-butyl)-N-(1-(2-methoxyethyl)-1H-pyrazol-3-yl)-2-oxo-1,2,3,5-tetrahydro-4H-benzo[e][1,4]diazepine-4-carboxamide], 0.18 µM. In the case of `CC[C@H](C)[C@H]1C(=O)Nc2ccccc2CN1C(=O)N1CC(F)(F)C1` [Compound 300, (S)-3-((S)-sec-butyl)-4-(3,3-difluoroazetidine-1-carbonyl)-1,3,4,5-tetrahydro-2H-benzo[e][1,4]diazepin-2-one] it was 0.42 µM; in that of `CC[C@H](C)[C@H]1C(=O)Nc2ccccc2CN1C(=O)NC1CCN(CCO)CC1` [Compound 301, (S)-3-((S)-sec-butyl)-N-(1-(2-hydroxyethyl)piperidin-4-yl)-2-oxo-1,2,3,5-tetrahydro-4H-benzo[e][1,4]diazepine-4-carboxamide], 0.36 µM. In the case of `CC[C@H](C)[C@H]1C(=O)Nc2ccccc2CN1C(=O)N1CCC[C@@H](CO)C1` [Compound 302, (S)-3-((S)-sec-butyl)-4-((R)-3-(hydroxymethyl)piperidine-1-carbonyl)-1,3,4,5-tetrahydro-2H-benzo[e][1,4]diazepin-2-one] it was 0.82 µM; in that of `CC[C@H](C)[C@H]1C(=O)Nc2ccccc2CN1C(=O)N1CCC[C@H](CO)C1` [Compound 303, (S)-3-((S)-sec-butyl)--4-((S)-3-(hydroxymethyl)piperidine-1-carbonyl)-1,3,4,5-tetrahydro-2H-benzo[e][1,4]diazepin-2-one], 0.89 µM. For the compound `CC[C@H](C)[C@H]1C(=O)Nc2ccccc2CN1C(=O)N1CCCC(C(N)=O)C1` (stereo partly drawn) [Compound 304, 1-((S)-3-((S)-sec-butyl)-2-oxo-2,3,4,5-tetrahydro-1H-benzo[e][1,4]diazepine-4-carbonyl)piperidine-3-carboxamide], the AC1.4 is 2.27 µM.

For `CC[C@H](C)[C@H]1C(=O)Nc2ccccc2CN1C(=O)N1CCCC(C(N)=O)C1` (stereo partly drawn) [Compound 305, 1-((S)-3-((S)-sec-butyl)-2-oxo-2,3,4,5-tetrahydro-1H-benzo[e][1,4]diazepine-4-carbonyl)piperidine-3-carboxamide], the AC1.4 amounted to 1.42 µM.

`CC[C@H](C)[C@H]1C(=O)Nc2ccccc2CN1C(=O)N1CC(F)C1` [Compound 306, (S)-3-((S)-sec-butyl)-4-(3-fluoroazetidine-1-carbonyl)-1,3,4,5-tetrahydro-2H-benzo[e][1,4]diazepin-2-one]: the AC1.4 worked out at 0.11 µM.
